The values that follow come from patent US9006433B2, “Substituted pyrimidines” (Merck Sharp & Dohme Corp., priority 2010, dated 2015).

pIC50: −log10 of the molar value.

T1 sequence (Q9GZT9 whole entry, species assumed): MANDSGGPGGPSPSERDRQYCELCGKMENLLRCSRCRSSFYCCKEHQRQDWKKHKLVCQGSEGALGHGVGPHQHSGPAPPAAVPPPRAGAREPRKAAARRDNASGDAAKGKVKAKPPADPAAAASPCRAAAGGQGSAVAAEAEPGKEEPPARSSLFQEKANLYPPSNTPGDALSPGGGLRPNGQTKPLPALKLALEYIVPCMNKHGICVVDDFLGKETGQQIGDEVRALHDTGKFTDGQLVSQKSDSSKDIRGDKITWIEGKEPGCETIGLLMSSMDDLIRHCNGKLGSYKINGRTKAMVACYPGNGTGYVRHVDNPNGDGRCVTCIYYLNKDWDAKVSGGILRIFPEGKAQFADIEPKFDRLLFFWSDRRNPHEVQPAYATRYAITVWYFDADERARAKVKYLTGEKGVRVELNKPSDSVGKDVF

This experiment addresses T1, PHD2 (Homo sapiens, UniProt Q9GZT9).
T1 construct: FLAG-tagged full length PHD2 expressed in and purified from baculovirus-infected Sf9 cells; FLAG; made in house; host or cells: baculovirus-infected Sf9 cells
Put plainly: PHD2 inhibition assay (time resolved fluorescence, HIF-1α peptide hydroxylation / VHL complex detection). In kind it is biochemical. The following applies: FLAG-tagged full length PHD2; 0.2 μM 2-oxoglutarate, 0.5 μM HIF-1α peptide. The method, then:
To each well of a 96-well plate was added 1 μL of test compound in DMSO and 20 μl of assay buffer (50 mM Iris pH 7.4/0.01% Tween-20/0.1 mg/ml bovine serum albumin/10 μM ferrous sulfate/1 mM sodium ascorbate/20 μg/ml catalase) containing 0.15 μg/ml FLAG-tagged full length PHD2 expressed in and purified from baculovirus-infected Sf9 cells. After a 30 min preincubation at room temperature, the enzymatic reactions were initiated by the addition of […] of substrates (final concentrations of 0.2 μM 2-oxoglutarate and 0.5 μM HIF-1α peptide biotinyl-DLDLEMLAPYIPMDDDFQL (SEQ ID NO:1)). After 2 hr at room temperature, the reactions were terminated and signals were developed by the addition of a 25 μL quench/detection mix to a final concentration of 1 mM ortho-phenanthroline, 0.1 mM EDTA, 0.5 nM anti-(His)6 LANCE reagent (Perkin-Elmer Life Sciences), 100 nM AF647-labeled streptavidin (Invitrogen), and 2 μg/ml (His)-6-VHL complex (S. Tan(2001) Protein Expr. Purif. 21, 224-234). The ratio of time resolved fluorescence signals at 665 and 620 nm was determined, and percent inhibition was calculated relative to an uninhibited control sample run in parallel.
On to `O=C(Nc1cnc(-n2cccn2)nc1O)C(c1ccccc1)c1ccccc1` [Compound 2-1, N-(4-hydroxy-2-(1H-pyrazol-1-yl)pyrimidin-5-yl)-2,2-diphenylacetamide], for which the pIC50 (in general, −log10 of the IC50, conventionally taken in molar units) is 7.70 to 9.30. Then `O=C(Nc1cnc(-n2cccn2)nc1O)c1ccccc1Cl` [Compound 3-1, 2-chloro-N-(4-hydroxy-2-(1H-pyrazol-1-yl)pyrimidin-5-yl)benzamide], with 7.70 to 9.30; and `O=C(Nc1cnc(-n2cccn2)nc1O)c1cccc(Cl)c1` [Compound 3-2, 3-chloro-N-(4-hydroxy-2-(1H-pyrazol-1-yl)pyrimidin-5-yl)benzamide], with 7.70 to 9.30. Compound `O=C(Nc1cnc(-n2cccn2)nc1O)c1ccc(Cl)cc1` [Compound 3-3, 4-chloro-N-(4-hydroxy-2-(1H-pyrazol-1-yl)pyrimidin-5-yl)benzamide] gave a pIC50 of 7.00 to 7.70. In turn, `O=C(Nc1cnc(-n2cccn2)nc1O)c1cccc(C(F)(F)F)c1` [Compound 3-4, 3-(trifluoromethyl)-N-(4-hydroxy-2-(1H-pyrazol-1-yl)pyrimidin-5-yl)benzamide] showed a pIC50 of 7.70 to 9.30. `O=C(Nc1cnc(-n2cccn2)nc1O)c1ccc(C(F)(F)F)cc1` [Compound 3-5, 4-(trifluoromethyl)-N-(4-hydroxy-2-(1H-pyrazol-1-yl)pyrimidin-5-yl)benzamide] gave a pIC50 of 7.00 to 7.70. The result for `O=C(Cc1ccc2ccccc2c1)Nc1cnc(-n2cccn2)nc1O` [Compound 3-6, N-(4-hydroxy-2-(1H-pyrazol-1-yl)pyrimidin-5-yl)-2-(naphthalen-3-yl)acetamide] reads 7.70 to 9.30; that for `N#Cc1ccccc1C(=O)Nc1cnc(-n2cccn2)nc1O` [Compound 3-7, 2-cyano-N-(4-hydroxy-2-(1H-pyrazol-1-yl)pyrimidin-5-yl)benzamide], 5.00 to 7.00; that for `N#Cc1cccc(C(=O)Nc2cnc(-n3cccn3)nc2O)c1` [Compound 3-8, 3-cyano-N-(4-hydroxy-2-(1H-pyrazol-1-yl)pyrimidin-5-yl)benzamide], 7.00 to 7.70. Then `N#Cc1ccc(C(=O)Nc2cnc(-n3cccn3)nc2O)cc1` [Compound 3-9, 4-cyano-N-(4-hydroxy-2-(1H-pyrazol-1-yl)pyrimidin-5-yl)benzamide], with 7.00 to 7.70.

`O=C(Nc1cnc(-n2cccn2)nc1O)c1ccccc1C(F)(F)F` [Compound 3-10, 2-(trifluoromethyl)-N-(4-hydroxy-2-(1H-pyrazol-1-yl)pyrimidin-5-yl)benzamide] showed a pIC50 of 7.70 to 9.30. `COc1ccccc1C(=O)Nc1cnc(-n2cccn2)nc1O` [Compound 3-11, N-(4-hydroxy-2-(1H-pyrazol-1-yl)pyrimidin-5-yl)-2-methoxybenzamide] showed a pIC50 of 7.00 to 7.70. The result for `COc1cccc(C(=O)Nc2cnc(-n3cccn3)nc2O)c1` [Compound 3-12, N-(4-hydroxy-2-(1H-pyrazol-1-yl)pyrimidin-5-yl)-3-methoxybenzamide] reads 7.00 to 7.70; that for `COc1ccc(C(=O)Nc2cnc(-n3cccn3)nc2O)cc1` [Compound 3-13, N-(4-hydroxy-2-(1H-pyrazol-1-yl)pyrimidin-5-yl)-4-methoxybenzamide], 7.00 to 7.70; that for `CS(=O)(=O)c1ccccc1C(=O)Nc1cnc(-n2cccn2)nc1O` [Compound 3-14, N-(4-hydroxy-2-(1H-pyrazol-1-yl)pyrimidin-5-yl)-2-(methylsulfonyl)benzamide], 5.00 to 7.00. Then `CS(=O)(=O)c1cccc(C(=O)Nc2cnc(-n3cccn3)nc2O)c1` [Compound 3-15, N-(4-hydroxy-2-(1H-pyrazol-1-yl)pyrimidin-5-yl)-3-(methylsulfonyl)benzamide], with 7.00 to 7.70; and `CS(=O)(=O)c1ccc(C(=O)Nc2cnc(-n3cccn3)nc2O)cc1` [Compound 3-16, N-(4-hydroxy-2-(1H-pyrazol-1-yl)pyrimidin-5-yl)-4-(methylsulfonyl)benzamide], with 7.00 to 7.70; and `O=C(Nc1cnc(-n2cccn2)nc1O)c1ccccc1-c1ccccc1` [Compound 3-17, N-[4-hydroxy-2-(1H-pyrazol-1-yl)pyrimidin-5-yl]biphenyl-2-carboxamide], with 7.00 to 7.70.
